Experiment: Phase 1/2 first-in-human clinical study, safety evaluation (DLT, TEAE, SAE)

C=C1C[C@@H]2CC[C@H]1[C@@H](C(=O)N1CCC3(CC1)CN(c1ncncc1Oc1ccc(F)cc1C(=O)N(C(C)C)C(C)C)C3)N2 [the present compound, 5-fluoro-2-[(4-{7-[(1S,3S,4R)-5-methylidene-2-azabicyclo[2.2.2]octane-3-carbonyl]-2,7-diazaspiro[3.5]nonan-2-yl}pyrimidin-5-yl)oxy]-N,N-di(propan-2-yl)benzamide]
2 (20.0) n (%): TEAE: Disease progression (Arm B N=10, ≥Grade 3) | TEAE: General disorders and administration site disorders (Arm B N=10, ≥Grade 3) | TEAE: Pneumonia (Arm B N=10, ≥Grade 3) | TEAE: Sepsis (Arm B N=10, ≥Grade 3)
34 (7.0%) n (%): Non-hematological laboratory change regardless of causality: Hypokalemia (N=57, Any Grade)
11 (19.3%) n (%): Non-hematological TEAE regardless of causality: Constipation (N=57, Any Grade) | Non-hematological TEAE regardless of causality: Sepsis (N=57, Any Grade) | Non-hematological TEAE regardless of causality: Stomatitis (N=57, Any Grade)
23 (40.4%) n (%): Non-hematological TEAE regardless of causality: Nausea (N=57, Any Grade) | Non-hematological laboratory change regardless of causality: AST increase (N=57, Any Grade)
13 (22.8%) n (%): Non-hematological TEAE regardless of causality: Dyspnoea (N=57, Any Grade)
45 (7.9%) n (%): Non-hematological laboratory change regardless of causality: Hypertriglyceridemia (N=57, Any Grade)
1 (10.0) n (%): TEAE: Hypertriglyceridaemia (Arm B N=10, ≥Grade 3) | TEAE: Hypocalcaemia (Arm B N=10, ≥Grade 3) | TEAE: Investigations (Arm B N=10, ≥Grade 3) | TEAE: Musculoskeletal and connective tissue disorders (Arm B N=10, ≥Grade 3) | related TEAE: Aspartate aminotransferase increased (Arm B N=10, ≥Grade 3) | related TEAE: Blood and lymphatic system disorders (Arm B N=10, ≥Grade 3) | related TEAE: Hypertriglyceridaemia (Arm B N=10, ≥Grade 3) | related TEAE: Investigations (Arm B N=10, ≥Grade 3) | related TEAE: Leukocytosis (Arm B N=10, ≥Grade 3) | related TEAE: Metabolism and nutrition disorders (Arm B N=10, ≥Grade 3)
10 (17.5%) n (%): Hematological TEAE regardless of causality: Leukocytosis (N=57, Any Grade) | Non-hematological TEAE regardless of causality: Diarrhoea (N=57, Any Grade) | Non-hematological TEAE regardless of causality: Epistaxis (N=57, Any Grade) | Non-hematological TEAE regardless of causality: Fatigue (N=57, Any Grade) | Non-hematological TEAE regardless of causality: Pneumonia (N=57, Any Grade) | Treatment related adverse event: Nausea (N=57, Any Grade)
28 (49.1%) n (%): Non-hematological laboratory change regardless of causality: ALT increase (N=57, Any Grade)
15 (26.3%) n (%): Non-hematological TEAE regardless of causality: Decreased appetite (N=57, Any Grade) | Non-hematological TEAE regardless of causality: Headache (N=57, Any Grade)
3 (30.0)*^3 n (%): TEAE: Hypokalaemia (Arm B N=10, ≥Grade 3 (not related to the present compound))
4 (40.0) n (%): TEAE: Infections and Infestations (Arm B N=10, ≥Grade 3) | TEAE: Metabolism and nutrition disorders (Arm B N=10, ≥Grade 3)
26 (4.6%) n (%): Non-hematological laboratory change regardless of causality: Hypomagnesemia (N=57, Any Grade)
32 (56.1%) n (%): Non-hematological laboratory change regardless of causality: Hyponatremia (N=57, Any Grade)
1 (1.8%) n (%): Non-hematological TEAE regardless of causality: Arthralgia (N=57, Grade ≥3) | Non-hematological TEAE regardless of causality: Back pain (N=57, Grade ≥3)
12 (21.1%) n (%): Hematological TEAE regardless of causality: Febrile neutropenia (N=57, Any Grade) | Hematological TEAE regardless of causality: Febrile neutropenia (N=57, Grade ≥3)
9 (15.8%) n (%): Hematological TEAE regardless of causality: Anaemia (N=57, Any Grade) | Hematological TEAE regardless of causality: Platelet count decreased (N=57, Any Grade) | Non-hematological TEAE regardless of causality: Muscular weakness (N=57, Any Grade) | Non-hematological TEAE regardless of causality: Oedema peripheral (N=57, Any Grade) | Non-hematological TEAE regardless of causality: Pyrexia (N=57, Any Grade)
0 n (%): TEAE: Dyspnoea (Arm B N=10, ≥Grade 3) | TEAE: Epistaxis (Arm B N=10, ≥Grade 3) | TEAE: Fatigue (Arm B N=10, ≥Grade 3) | TEAE: Gastrointestinal disorders (Arm B N=10, ≥Grade 3) | TEAE: Headache (Arm B N=10, ≥Grade 3) | TEAE: Hemorrhoids (Arm B N=10, ≥Grade 3) | TEAE: Hypoalbuminaemia (Arm B N=10, ≥Grade 3) | TEAE: Hypomagnaesemia (Arm B N=10, ≥Grade 3) | TEAE: Hyponatraemia (Arm B N=10, ≥Grade 3) | TEAE: Nausea (Arm B N=10, ≥Grade 3) | TEAE: Nervous System Disorders (Arm B N=10, ≥Grade 3) | TEAE: Oedema peripheral (Arm B N=10, ≥Grade 3) | TEAE: Pain in extremity (Arm B N=10, ≥Grade 3) | TEAE: Platelet count decreased (Arm B N=10, ≥Grade 3) | TEAE: Pruritus (Arm B N=10, ≥Grade 3) | TEAE: Pyrexia (Arm B N=10, ≥Grade 3) | TEAE: Respiratory, thoracic and mediastinal disorders (Arm B N=10, ≥Grade 3) | TEAE: Skin and subcutaneous tissue disorders (Arm B N=10, ≥Grade 3) | TEAE: Stomatitis (Arm B N=10, ≥Grade 3) | TEAE: Vomiting (Arm B N=10, ≥Grade 3) | related TEAE: Decreased appetite (Arm B N=10, ≥Grade 3) | related TEAE: Differentiation syndrome (Arm B N=10, ≥Grade 3) | related TEAE: Gastrointestinal disorders (Arm B N=10, ≥Grade 3) | related TEAE: General disorders and administration site conditions (Arm B N=10, ≥Grade 3) | related TEAE: Headache (Arm B N=10, ≥Grade 3) | related TEAE: Hyperuricaemia (Arm B N=10, ≥Grade 3) | related TEAE: Increased appetite (Arm B N=10, ≥Grade 3) | related TEAE: Nausea (Arm B N=10, ≥Grade 3) | related TEAE: Neoplasms benign, malignant and unspecified (incl cysts and polyps) (Arm B N=10, ≥Grade 3) | related TEAE: Nervous system disorders (Arm B N=10, ≥Grade 3) | related TEAE: Thirst (Arm B N=10, ≥Grade 3) | related TEAE: Vomiting (Arm B N=10, ≥Grade 3)
20 (35.1%) n (%): Non-hematological TEAE regardless of causality: Vomiting (N=57, Any Grade)
7 (12.3%) n (%): Hematological TEAE regardless of causality: Neutrophil count decreased (N=57, Any Grade) | Non-hematological TEAE regardless of causality: Cough (N=57, Any Grade) | Non-hematological TEAE regardless of causality: Electrocardiogram QT prolonged (N=57, Any Grade) | Non-hematological TEAE regardless of causality: Hypotension (N=57, Any Grade) | Treatment related adverse event: Vomiting (N=57, Any Grade)
4 (7.0%) n (%): Hematological TEAE regardless of causality: Leukocytosis (N=57, Grade ≥3)
33 (57.9%) n (%): Non-hematological laboratory change regardless of causality: Hypocalcemia (N=57, Any Grade)
19 (33.3%) n (%): Non-hematological laboratory change regardless of causality: Hypophosphatemia (N=57, Any Grade)
6 (10.5%) n (%): Non-hematological TEAE regardless of causality: Arthralgia (N=57, Any Grade) | Non-hematological TEAE regardless of causality: COVID-19 (N=57, Any Grade) | Non-hematological TEAE regardless of causality: Dysgeusia (N=57, Any Grade) | Non-hematological TEAE regardless of causality: Haemorrhage intracranial (N=57, Any Grade) | Non-hematological TEAE regardless of causality: Myalgia (N=57, Any Grade) | Hematological TEAE regardless of causality: Neutrophil count decreased (N=57, Grade ≥3)
8 (14.0%) n (%): Non-hematological TEAE regardless of causality: Back pain (N=57, Any Grade) | Non-hematological TEAE regardless of causality: Dizziness (N=57, Any Grade) | Non-hematological TEAE regardless of causality: Hypertension (N=57, Any Grade) | Non-hematological TEAE regardless of causality: Pain in extremity (N=57, Any Grade) | Hematological TEAE regardless of causality: Anaemia (N=57, Grade ≥3) | Hematological TEAE regardless of causality: Platelet count decreased (N=57, Grade ≥3)
